Source: US5091169A, “Dipyridoxyl phosphate NMRI contrast agent compositions” (priority 1989, dated 1992)
Where two headings read alike, the source gives them in different places.

Tested on: selected body organs
Details: for T1, Blood / T1, Brain / T1, Large Int. / T1, Liver / T1, Renal Cort. / T1, Renal Med. / T1, Small Int. / T1, Urine / T2, Brain / T2, Large Int. / T2, Liver / T2, Renal Cort. / T2, Renal Med. / T2, Small Int. / T1, Fat / T1, Heart / T1, Lung / T1, Skel. Musc. / T1, Stom. / T2, Fat / T2, Heart / T2, Lung / T2, Skel. Musc. / T2, Stom. / T2, Urine: 30 min, 10 MHz
Method: Each of four rabbits was injected intravenously with one of the following amounts of the solution obtained in Example 7: 0.01 mmoles/kg, 0.05 mmoles/kg, 0.10 mmoles/kg and 0.20 mmoles/kg. The rabbits were sacrificed 30 min post injection, and the proton relaxation values of selected body organs were measured with NMR, in vitro at 10 MHz.

Cc1ncc(COP(=O)(O)O)c(CN(CCN(CC(=O)[O-])Cc2c(COP(=O)(O)O)cnc(C)c2O)CC(=O)[O-])c1O.[Mn+2] [Mn(DPDP), manganese chelate complex of N,N'-bis-(pyridoxal-5-phosphate)ethylenediamine-N,N'-diacetic acid]
T1, Blood (0.01 mmol/kg i.v.): 844 ms
T1, Brain (0.01 mmol/kg i.v.): 554 ms
T1, Large Int. (0.01 mmol/kg i.v.): 283 ms
T1, Liver (0.01 mmol/kg i.v.): 176 ms
T1, Renal Cort. (0.01 mmol/kg i.v.): 298 ms
T1, Renal Med. (0.01 mmol/kg i.v.): 502 ms
T1, Small Int. (0.01 mmol/kg i.v.): 324 ms
T1, Urine (0.01 mmol/kg i.v.): 821 ms
T2, Brain (0.01 mmol/kg i.v.): 76 ms
T2, Large Int. (0.01 mmol/kg i.v.): 64 ms
T2, Liver (0.01 mmol/kg i.v.): 39 ms
T2, Renal Cort. (0.01 mmol/kg i.v.): 65 ms
T2, Renal Med. (0.01 mmol/kg i.v.): 99 ms
T2, Small Int. (0.01 mmol/kg i.v.): 72 ms
T1, Blood (0.05 mmol/kg i.v.): 613 ms
T1, Brain (0.05 mmol/kg i.v.): 496 ms
T1, Fat (0.05 mmol/kg i.v.): 200 ms
T1, Heart (0.05 mmol/kg i.v.): 353 ms
T1, Large Int. (0.05 mmol/kg i.v.): 365 ms
T1, Liver (0.05 mmol/kg i.v.): 76 ms
T1, Lung (0.05 mmol/kg i.v.): 575 ms
T1, Renal Cort. (0.05 mmol/kg i.v.): 210 ms
T1, Renal Med. (0.05 mmol/kg i.v.): 223 ms
T1, Skel. Musc. (0.05 mmol/kg i.v.): 494 ms
T1, Small Int. (0.05 mmol/kg i.v.): 237 ms
T1, Stom. (0.05 mmol/kg i.v.): 245 ms
T1, Urine (0.05 mmol/kg i.v.): 150 ms
T2, Brain (0.05 mmol/kg i.v.): 82 ms
T2, Fat (0.05 mmol/kg i.v.): 139 ms
T2, Heart (0.05 mmol/kg i.v.): 54 ms
T2, Large Int. (0.05 mmol/kg i.v.): 83 ms
T2, Liver (0.05 mmol/kg i.v.): 31 ms
T2, Lung (0.05 mmol/kg i.v.): 113 ms
T2, Renal Cort. (0.05 mmol/kg i.v.): 57 ms
T2, Renal Med. (0.05 mmol/kg i.v.): 57 ms
T2, Skel. Musc. (0.05 mmol/kg i.v.): 47 ms
T2, Small Int. (0.05 mmol/kg i.v.): 52 ms
T2, Stom. (0.05 mmol/kg i.v.): 41 ms
T2, Urine (0.05 mmol/kg i.v.): 136 ms
T1, Blood (0.10 mmol/kg i.v.): 506 ms
T1, Brain (0.10 mmol/kg i.v.): 590 ms
T1, Fat (0.10 mmol/kg i.v.): 183 ms
T1, Heart (0.10 mmol/kg i.v.): 300 ms
T1, Large Int. (0.10 mmol/kg i.v.): 290 ms
T1, Liver (0.10 mmol/kg i.v.): 65 ms
T1, Lung (0.10 mmol/kg i.v.): 435 ms
T1, Renal Cort. (0.10 mmol/kg i.v.): 188 ms
T1, Renal Med. (0.10 mmol/kg i.v.): 209 ms
T1, Skel. Musc. (0.10 mmol/kg i.v.): 425 ms
T1, Small Int. (0.10 mmol/kg i.v.): 218 ms
T1, Stom. (0.10 mmol/kg i.v.): 242 ms
T1, Urine (0.10 mmol/kg i.v.): 90 ms
T2, Brain (0.10 mmol/kg i.v.): 90 ms
T2, Fat (0.10 mmol/kg i.v.): 115 ms
T2, Heart (0.10 mmol/kg i.v.): 51 ms
T2, Large Int. (0.10 mmol/kg i.v.): 57 ms
T2, Liver (0.10 mmol/kg i.v.): 23 ms
T2, Lung (0.10 mmol/kg i.v.): 61 ms
T2, Renal Cort. (0.10 mmol/kg i.v.): 55 ms
T2, Renal Med. (0.10 mmol/kg i.v.): 48 ms
T2, Skel. Musc. (0.10 mmol/kg i.v.): 31 ms
T2, Small Int. (0.10 mmol/kg i.v.): 46 ms
T2, Stom. (0.10 mmol/kg i.v.): 52 ms
T2, Urine (0.10 mmol/kg i.v.): 75 ms
T1, Blood (0.20 mmol/kg i.v.): 411 ms
T1, Brain (0.20 mmol/kg i.v.): 352 ms
T1, Fat (0.20 mmol/kg i.v.): 192 ms
T1, Heart (0.20 mmol/kg i.v.): 205 ms
T1, Large Int. (0.20 mmol/kg i.v.): 256 ms
T1, Liver (0.20 mmol/kg i.v.): 68 ms
T1, Lung (0.20 mmol/kg i.v.): 376 ms
T1, Renal Cort. (0.20 mmol/kg i.v.): 143 ms
T1, Renal Med. (0.20 mmol/kg i.v.): 127 ms
T1, Skel. Musc. (0.20 mmol/kg i.v.): 232 ms
T1, Small Int. (0.20 mmol/kg i.v.): 131 ms
T1, Stom. (0.20 mmol/kg i.v.): 271 ms
T2, Brain (0.20 mmol/kg i.v.): 66 ms
T2, Heart (0.20 mmol/kg i.v.): 47 ms
T2, Large Int. (0.20 mmol/kg i.v.): 74 ms
T2, Liver (0.20 mmol/kg i.v.): 25 ms
T2, Lung (0.20 mmol/kg i.v.): 63 ms
T2, Renal Cort. (0.20 mmol/kg i.v.): 53 ms
T2, Renal Med. (0.20 mmol/kg i.v.): 60 ms
T2, Skel. Musc. (0.20 mmol/kg i.v.): 31 ms
T2, Small Int. (0.20 mmol/kg i.v.): 46 ms
T2, Stom. (0.20 mmol/kg i.v.): 53 ms
heart uptake vs dose (dose range studied): the heart continues to uptake Mn(DPDP) through the dose range studied
uptake in organs (heart, liver and kidneys, i.v.): rapid uptake of the Mn(DPDP) in the heart, liver and kidneys
brain uptake (higher doses): uptake by the brain was observed at higher doses
saturating dose, liver and kidneys (i.v., 30 min post injection): 0.10 mmol/kg
